{"source": "patent US20240197716A1", "about": "“TREATMENTS FOR CUSHING'S SYNDROME THAT DO NOT SIGNIFICANTLY AFFECT CARDIAC RHYTHMS” (Corcept Therapeutics Incorporated, priority 2022, published 2024)", "key": {"QT interval": {"system": "QT interval", "details": "in vivo; cited from earlier work"}, "[1]": {"system": "cardiac repolarization in healthy volunteers", "assay": "Thorough QT/QTc (TQT) study (NCT04795479), cardiodynamic Holter ECG", "source_text": "These studies included a randomized, partial double-blind, placebo- and positive-controlled, multiple-dose, 4-way crossover, thorough QT/QTc (TQT) study to investigate the effect of relacorilant on cardiac repolarization. These studies measured placebo-corrected change-from-baseline QTcF (ΔΔQTcF); change-from-baseline of QTcF, HR, and PR and QRS intervals (ΔQTcF, ΔHR, ΔPR, and ΔQRS); placebo-corrected change-from-baseline of HR, and PR and QRS intervals (ΔΔHR, ΔΔPR, and ΔΔQRS); categorical outliers for QTcF, HR, and PR and QRS intervals; the frequency of treatment-emergent changes of T-wave morphology and presence of U-waves; PK parameters of relacorilant and its metabolites (CORT125337, CORT125336, and CORT125295) and moxifloxacin; safety profiles, including AEs/SAEs, physical examination, clinical chemistry, hematology, urinalysis, ECG, and vital signs.\nA phase 1, randomized, partial double-blind, crossover thorough QT study (NCT04795479) to assess the effect of multiple doses of relacorilant on cardiac repolarization in healthy volunteers. Participants were randomized to dosing sequences to receive relacorilant at therapeutic (400 mg QD, n=25) or supra-therapeutic (800 mg QD, n=28) doses, or placebo (n=29) for 5 days. Moxifloxacin (400 mg single dose, n=28) was used as a positive control.\nEach subject received 4 treatments in a randomized sequence during the study period. Each dosing consisted of 8 capsules (except for moxifloxacin on Day 5), including: • Treatment T: Multiple oral doses of 400 mg relacorilant (4 capsules)+placebo for relacorilant (4 capsules) once daily for 5 days; • Treatment ST: Multiple oral doses of 800 mg relacorilant (8 capsules) once daily for 5 days; • Treatment P: Multiple oral doses of placebo for relacorilant (8 capsules) once daily for 5 days; • Treatment M: Multiple oral doses of placebo for relacorilant (8 capsules) once daily for 4 days and a final single oral dose of 400 mg moxifloxacin (one tablet) on Day 5.\nIn a portion of present study conducted in healthy subjects, a single dose of moxifloxacin (400 mg; Treatment M) on the last day of its respective treatment period was included as a positive control to determine the sensitivity of the study to detect small QTc changes. Relacorilant doses included both a therapeutic dose level (400 mg; Treatment T) and a supra-therapeutic dose level (800 mg; Treatment ST). The study was blinded to subjects, investigator, study staff, and sponsor with respect to relacorilant (Treatments T and ST) and placebo for relacorilant (Treatment P); it was open-labeled for moxifloxacin (Treatment M). Enrolled subjects were randomized to one of twelve (12) dosing sequences to receive 4 different treatments according to the assigned dosing sequence as shown below:\nIn each period, subjects were admitted to the clinical site in the morning of Day-1 and stayed in the site until the morning of Day 6. In the study periods when subjects were randomized to Treatment T, ST, or P, the applicable study product (400 mg or 800 mg relacorilant or placebo for relacorilant) were taken once daily in the morning for 5 consecutive days. During the dosing period of positive control (Treatment M), placebo for relacorilant were administered on Days 1 to 4 to align with the dosing schedule for the other three treatments and moxifloxacin were administered in an open-labeled manner as a single dose in the morning of Day 5. Therefore, the treatment on Days 1 to 4 were double-blinded; it was not known before the morning on Day 5 whether or not a subject was allocated to receive moxifloxacin. Each dosing period (from Periods 2 to 4) was separated from the previous period by a washout period of at least 10 days from Day 6 of the previous period to Day 1 (first dose) of the subsequent period to prevent a carryover effect. The final visit was on Day 6 of Period 4. A safety phone follow-up was scheduled at 7 days (±2 days) post the final visit/early termination (ET) visit."}, "[2]": {"assay": "Plasma concentrations in TQT study (LC-MS/MS, non-compartmental PK)", "format": "in vivo, human", "details": "human, plasma, oral; 400 mg single dose; read-out: Geometric Mean Cmax", "procedure": "PK analyses were performed using non-compartmental methods to obtain estimates of the following parameters, where possible: […] Day 1: Cmax, Tmax, AUClast, and AUC0-24; Day 5: Cmax, Tmax, Cmin, AUClast, AUC0-tau, Cavg, FI, and AR. For moxifloxacin: Cmax, Tmax, AUClast, and AUC0-24. […] PK blood sampling for Day 1 was completed prior to dosing on Day 2."}}, "note": "Starred links: 1 amine or outer side, 2 acyl side, 3 side chain; linkers in the order of their positions; H or OH if unused. Non-standard residues stand in square brackets, D forms with d. Residues, ends and D or L forms follow the SMILES beside them. Groups on a side chain read outwards from the residue. *: point of attachment. Ethylenediamine = C(CN[*:2])N[*:1]; Hyp = O=C(O)[C@@H]1C[C@@H](O)CN1; Phg = N[C@H](C(=O)O)c1ccccc1; CO = O=C([*:1])[*:2]; Bn = c1ccc(C*)cc1"}
{"smiles": "CC(=O)N1CCN(c2ccc(OC[C@@H]3CO[C@@](Cn4ccnc4)(c4ccc(Cl)cc4Cl)O3)cc2)CC1", "note": "[levoketoconazole]", "values": [{"measurement": "effect on QT interval (literature)", "setting": "QT interval", "value": "associated with QT interval prolongation"}]}
{"smiles": "N#Cc1ccc([C@H]2CCc3cncn32)c(F)c1", "note": "[osilodrostat]", "values": [{"measurement": "effect on QT interval (literature)", "setting": "QT interval", "value": "associated with QT interval prolongation"}]}
{"smiles": "NCCCC[C@@H]1NC(=O)[C@@H](Cc2c[nH]c3ccccc23)NC(=O)[C@H](c2ccccc2)NC(=O)[C@@H]2C[C@@H](OC(=O)NCCN)CN2C(=O)[C@H](Cc2ccccc2)NC(=O)[C@H](Cc2ccc(OCc3ccccc3)cc2)NC1=O", "note": "[pasoreotide] (cyclo([Hyp]([CO-Ethylenediamine])[Phg][dW]KY(Bn)F))", "values": [{"measurement": "effect on QT interval (literature)", "setting": "QT interval", "value": "associated with QT interval prolongation"}]}
{"smiles": "COc1c(N2C[C@@H]3CCCN[C@@H]3C2)c(F)cc2c(=O)c(C(=O)O)cn(C3CC3)c12", "note": "[moxifloxacin, 1-cyclopropyl-7-[(S,S)-2,8-diazabicyclo[4.3.0]non-8-yl]-6-fluoro-8-methoxy-1,4-dihydro-4-oxo-3 quinoline carboxylic acid, reference compound]", "values": [{"measurement": "LS mean (90% CI) ΔΔQTcF, peak value", "setting": "[1]; 400 mg on day 5, 1.5 hours post-dose", "value": "10.7 (7.3, 14.1) msec"}, {"measurement": "QT effect of positive control", "setting": "[1]; 400 mg single dose", "value": "expected QT prolongation"}, {"measurement": "LS mean (90% CI) ΔQTcF", "setting": "[1]; 400 mg single dose on day 5, 1 hour post-dose", "value": "5.7 (3.3, 8.2) msec"}, {"measurement": "LS mean (90% CI) ΔQTcF, maximum observed value", "setting": "[1]; 400 mg single dose on day 5, 16 hours post-dose", "value": "9.7 (7.2, 12.2) msec"}, {"measurement": "ΔΔQTcF Estimate (msec) (90% CI), predicted at geometric mean Cmax", "setting": "[1]; 400 mg single dose, PK/QTc population", "value": "8.90 (5.96, 11.85)^2 msec"}, {"measurement": "lower bound of the 90% CI around the LS mean ΔΔQTcF", "setting": "[1]; 400 mg, at 4 of the 12 post-dose time points", "value": "exceeded 5 msec"}, {"measurement": "Cmax", "setting": "[2]", "value": 1870, "unit": "ng/mL"}, {"measurement": "effect on QT interval (literature)", "setting": "QT interval", "value": "prolong the QT interval of the electrocardiogram in some patients"}]}
